Experimental data published in US20210393742A1, “LONG-ACTING INTERLEUKIN-15 RECEPTOR AGONIST IN COMBINATION WITH ANOTHER PHARMACOLOGICALLY ACTIVE AGENT” (Nektar Therapeutics, priority 2018, published 2021).

Legend:
Daudi B cell lymphoma [1] = test: Survival in Daudi B cell lymphoma xenograft model, combination with rituximab (Example 1); type: in vivo, mice; conditions: after about 30 days; rituximab 40 mg/kg IP, days 14 and 17
Experimental: At day 0, SCID mice were intravenously injected with 1×10^7 Daudi cells. The mice were divided into four groups. On days 14 and 17 post-Daudi cell injection, the groups were treated by injection as follows: Group 1: isotype control antibody, Group 2: 40 mg/kg IP rituximab, Group 3: 0.3 mg/kg mono(methoxyPEG-N-butanamide)40 kD interleukin-15 (a long-acting IL-15 receptor agonist), Group 4: 40 mg/kg IP rituximab and 0.3 mg/kg SC mono(methoxyPEG-N-butanamide)40 kD interleukin-15 (combination).
The survival rate was determined by measuring the onset of hind limb paralysis as a surrogate parameter.

CD56+ human NK cells = test: Dose response of human NK cell proliferation in CFSE labeled PBMCs (Example 8); type: cell-based; conditions: 5 days
Experimental: Human peripheral blood mononuclear cell (PBMCs) labeled with a CFSE preparation were incubated for 5 days in vitro in the presence of increasing doses of rhIL-15 (dose range 1 ng/ml-100 ng/ml, 5 point, 3 fold dilutions) or a long-acting IL-15 receptor agonist (mono(mPEG-butanamide)IL-15) (dose range 10 ng/ml-1000 ng/ml, 5 point, 3 fold dilutions). After the incubation period, cell proliferation as indicated by the decrease of CFSE in the cells that had undergone cell doublings was measured with flow cytometry measuring CFSE levels in CD56+ human NK cells within the PBMCs preparation.

[2] = test system: STAT5 phosphorylation in KHYG-1 cells; test: Phosphorylation of STAT5 in KHYG-1 cells (Example 7); type: cell-based, human; conditions: 10 minutes
Experimental: KHYG-1 cells were cultured in RPMI-1640 medium supplemented with 20% FBS, 2 mM L-glutamine, and 20 ng/mL IL-2 (Complete growth medium) in a humidified incubator at 37° C. and 5% CO2.
One day prior to treatment with test compounds, cells were seeded at a density of 500,000 viable cells/ml in Complete growth medium and incubated overnight under normal growth conditions. On the day of the assay, KHYG-1 cells were washed 3 times with DPBS, resuspended in assay medium (RPMI-1640 medium supplemented with 20% FBS, 2 mM L-glutamine), and incubated for 4-5 hours at 37° C., 5% CO2. Cells were adjusted to the appropriate density (8×10^5 cells/mL) in assay medium and 50,000 cells/well were aliquoted into wells of a 96-well plate (View-Plate 96, Perkin-Elmer).
KHYG-1 cells were stimulated with IL-15 or a long-acting IL-15 receptor agonist (mono(mPEG-butanamide)IL-15) followed by incubation at 37° C., 5% CO2 for 10 minutes. Treated cells were lysed on ice.
Detection of phospho-STAT5 protein levels in cell lysates was performed using the Phospho(Tyr694)/Total STAT5a,b Assay Whole Cell Lysate kit (MSD product #K15163D). Relative light unit (RLU) signal corresponding to phosphor-STAT5 was collected using a Sector® Imager 2400 plate reader (MSD) with the results provided in FIG. 10A.

[3] = test system: STAT5 phosphorylation in lymphocytes; test: STAT5 phosphorylation in lymphocytes at time points after administration in mice, flow cytometry; type: in vivo
From the text: Conventional approaches, such as those involving radiolabeling a compound, administering the compound in vivo, and determining its clearance, can be used to assess whether a compound proposed to be a long-acting, IL-15 receptor agonist is “long-acting” (i.e., has a clearance that is longer than that of IL-15 administered in the same in vivo system). For the purposes herein, the long-acting nature of a long-acting IL-15 receptor agonist may be, and is typically determined using flow cytometry to measure STAT5 phosphorylation in lymphocytes at various time points after administration of the agonist to be evaluated in mice. As a reference, the signal is lost by around 24 hours with IL-15, but is sustained for a period greater than that for a long-acting IL-15 agonist.

NK cells [4] = test: NKG2A and NKG2D surface expression on bone marrow NK cells of Daudi lymphoma bearing mice (Example 4); type: in vivo; conditions: bone marrow day 24; Conjugate 1 0.3 mg/kg SC days 14 and 21; antibody 0.5 mg/kg IP day 14
Experimental: (§1) Balb/c mice bearing Daudi B cell lymphoma tumors in the bone marrow (n=6/group) were intraperitoneally administered a single 0.5 mg/kg dose of the human CD38 protein targeting clinical antibody daratumumab (DARZALEX®, Janssen Biotech) or a nonspecific control antibody with a matching isotype on day 14 after Daudi cell intravenous inoculation. Additional groups were administered mono(methoxyPEG-N-butanamide)40 kD interleukin-15 (Conjugate 1) subcutaneously at a dose of 0.3 mg/kg as a single agent on days 14 and 21 after Daudi cell inoculation, or administered a combination treatment of Conjugate 1 administered subcutaneously at doses of 0.03 mg/kg or 0.3 mg/kg on days 14 and 21 after Daudi cell inoculation and daratumumab administered intraperitoneally at a dose of 0.5 mg/kg on day 14 after Daudi cell inoculation.
Three days following the second Conjugate 1 administration (day 24 after Daudi inoculation), bone marrow was collected and the NK cell fraction was measured by flow cytometry in total bone marrow. Expression of the cell surface activating receptor NKG2D and the inhibitory checkpoint receptor NKG2A are shown in FIGS. 7A and 7B, respectively.

NK cells [5] = test: Granzyme B expression per cell in bone marrow NK cells of Daudi lymphoma bearing mice (Example 11); type: in vivo; conditions: bone marrow day 24; Conjugate 1 0.3 mg/kg; antibody 0.5 mg/kg
Experimental: as §1, with “daratumumab (DARZALEX®),” for “daratumumab (DARZALEX®,”, “were treated with (i) mono(mPEG-N-butanamide)40” for “were administered mono(methoxyPEG-N-butanamide)40”, “1) administered” for “1)”, “or (ii)” for “or administered”
Three days following the second Conjugate 1 administration (day 24 after Daudi inoculation), bone marrow was collected and the NK cell fraction was measured by flow cytometry in total bone marrow.

NK cells [6] = test: CD16 surface expression on bone marrow NK cells of Daudi lymphoma bearing mice (Example 10); type: in vivo; conditions: bone marrow day 24
Experimental: as §1, with “were treated with (i) mono(mPEG-N-butanamide)40” for “were administered mono(methoxyPEG-N-butanamide)40”, “1) administered” for “1)”, “or (ii)” for “or administered”
Three days following the second Conjugate 1 administration (day 24 after Daudi inoculation), bone marrow was collected and the NK cell fraction was measured by flow cytometry in total bone marrow. The fraction of NK cells expressing the cell surface CD16 receptor that is known to mediate antibody dependent cellular cytotoxicity mechanism in the presence of tumor targeting antibodies, and the change in CD16 expression per cell basis on NK cells are shown in FIGS. 13A and 13B, respectively.

Daudi B cell lymphoma [7] = test: Daudi cell counts in bone marrow, low and high doses (Example 14); type: in vivo, mice; conditions: day 24, single agent
Experimental: SCID mice (N=6/group) were intravenously inoculated with 10 million Daudi cells on Day 0 and treated with a single dose of a lower or higher dose of daratumumab (0.05 mg/kg or 5 mg/kg IP, 14 days following Daudi cell inoculation) and two doses of either lower or higher dose mono(methoxyPEG-N-butanamide)interleukin-15 (compound 1) (0.03 mg/kg or 0.6 mg/kg intravenously, one dose at each of 14 and 21 days after inoculation). Mice were also treated with the single agent therapies: daratumumab (0.05 mg/kg or 5 mg/kg IP, 14 days following Daudi cell inoculation) or two doses of mono(methoxyPEG-N-butanamide)40 kD interleukin-15 (compound 1) (0.03 mg/kg or 0.6 mg/kg intravenously, 14 and 21 days after inoculation). Daudi cell numbers in the bone marrow were assessed three days following the second dose of mono(methoxyPEG-N-butanamide)40 kD interleukin-15 (day 24) by flow cytometry as shown in FIGS. 17A and 17B.

Daudi B cell lymphoma [8] = test: Survival in Daudi B cell lymphoma xenograft model, combination with daratumumab (Example 3); type: in vivo, mice; conditions: post tumor injection; daratumumab 0.5 mg/kg IP day 14; agonist 0.3 mg/kg SC days 14, 21, 28
Experimental: SCID mice (N=8/group) inoculated intravenously with 1×10^7 Daudi B cell lymphoma cells were treated with a single dose of daratumumab (0.5 mg/kg, IP, 14 days after inoculation) and a total of three doses of mono(methoxyPEG-N-butanamide)40 kD interleukin-15 (0.3 mg/kg, SC, administered 14, 21 and 28 days after tumor inoculation). Also evaluated were untreated mice as a control and mice treated with daratumumab as a single agent therapy. Survival of tumor-inoculated mice was measured by body condition scoring as endpoint marker. Results are provided graphically in FIG. 5.

[9] = Conjugate 1 0.3 mg/kg, antibody 0.5 mg/kg

## rituximab: anti-CD20 monoclonal antibody (Rituxan®, Genentech) [reference compound]
Daudi B cell lymphoma [1]
  survival: 0%

## rhIL-15: recombinant human interleukin-15 (SEQ ID NO: 1), unconjugated comparator [reference compound]
CD56+ human NK cells
  EC50 (ng/ml)-% proliferation: 2.28 ng/mL
  Emax-% proliferation: 69.6%
[2]
  phosphorylation of STAT5: dose-dependent phosphorylation of STAT5
[3]
  time by which the STAT5 phosphorylation signal is lost: around 24 hours

## Daratumumab: anti-CD38 monoclonal antibody (DARZALEX®, Janssen Biotech) [reference compound]
NK cells [4]
  % NK cells expressing NKG2A (mean, n = 6): 54.83%
  % NK cells expressing NKG2D (mean, n = 6): 10.22%
NK cells [5]
  Granzyme B mean fluorescence intensity (MFI mean value): 272
  Relative Granzyme B expression compared to untreated condition: No increase (0.7x)
NK cells [6]; Conjugate 1 0.3 mg/kg SC days 14 and 21, antibody 0.5 mg/kg IP day 14
  Fraction of NK cell expressing cell surface CD16 (mean value): 81%
NK cells [6]; [9]
  CD16 mean fluorescence intensity (MFI mean value): 448
  Relative CD16 expression compared to untreated condition: No increase (1x)
Daudi B cell lymphoma [7]; high dose (daratumumab 5 mg/kg; compound 1 0.6 mg/kg)
  intra-bone marrow tumor cells depleted: 58%
Daudi B cell lymphoma [7]; low dose (daratumumab 0.05 mg/kg; compound 1 0.03 mg/kg)
  intra-bone marrow tumor cells depleted: 30%
Daudi B cell lymphoma [8]
  median survival: 28.5 days
